Measured values reported in ChEMBL document CHEMBL4393686, “InCl3 mediated heteroarylation of indoles and their derivatization via CH activation strategy: Discovery of 2-(1H-indol-3-yl)-quinoxaline derivatives as a new class of PDE4B selective inhibitors for arthritis and/or multiple sclerosis” (Eur J Med Chem, 2019).
Calls of active or inactive are those of the source. The calls are words filed in the database; no cut-off is given here.

Key:
[1] = target: T1, 3',5'-cyclic-AMP phosphodiesterase 4B (Homo sapiens, UniProt Q07343); test: Inhibition of human recombinant His-tagged PDE4B expressed in Sf9 cells using cAMP as substrate at 10 uM preincubated with enzyme for 15 mins followed by substrate addition and incubated for 1 hr by PDELight HTS cAMP phosphodiesterase Kit based luminometry relative to control
T1 sequence (Q07343 whole entry): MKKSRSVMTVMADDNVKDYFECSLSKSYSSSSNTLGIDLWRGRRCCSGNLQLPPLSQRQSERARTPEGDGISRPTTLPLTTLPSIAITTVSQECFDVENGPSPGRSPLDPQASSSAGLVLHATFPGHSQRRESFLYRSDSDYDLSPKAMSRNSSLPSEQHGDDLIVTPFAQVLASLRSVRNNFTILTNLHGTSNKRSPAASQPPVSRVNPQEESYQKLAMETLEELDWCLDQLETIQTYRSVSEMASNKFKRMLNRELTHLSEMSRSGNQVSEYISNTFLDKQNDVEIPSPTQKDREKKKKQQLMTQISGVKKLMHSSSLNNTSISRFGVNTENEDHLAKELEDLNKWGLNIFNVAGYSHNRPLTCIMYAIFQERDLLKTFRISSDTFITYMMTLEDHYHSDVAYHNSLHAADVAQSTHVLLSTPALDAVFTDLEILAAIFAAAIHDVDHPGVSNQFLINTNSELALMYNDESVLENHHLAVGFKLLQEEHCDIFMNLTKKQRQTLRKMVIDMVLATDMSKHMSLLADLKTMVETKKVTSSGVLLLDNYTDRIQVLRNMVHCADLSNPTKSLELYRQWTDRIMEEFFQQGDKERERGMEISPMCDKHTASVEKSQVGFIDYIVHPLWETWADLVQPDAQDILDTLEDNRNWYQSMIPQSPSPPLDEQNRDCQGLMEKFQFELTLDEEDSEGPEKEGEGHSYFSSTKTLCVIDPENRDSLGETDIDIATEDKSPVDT

[2] = target: T1, 3',5'-cyclic-AMP phosphodiesterase 4B; test: Inhibition of recombinant His-tagged human PDE4B expressed in Sf9 cells using cAMP as substrate preincubated with enzyme for 15 mins followed by substrate addition and incubated for 1 hr by PDELight HTS cAMP phosphodiesterase Kit based luminometry
[3] = target: 3',5'-cyclic-AMP phosphodiesterase 4D (Homo sapiens, UniProt Q08499); test: Inhibition of PDE4D2 (unknown origin) using cAMP as substrate preincubated with enzyme for 15 mins followed by substrate addition and incubated for 1 hr by PDELight HTS cAMP phosphodiesterase Kit based luminometry
Chain of 3',5'-cyclic-AMP phosphodiesterase 4D (Q08499 whole entry): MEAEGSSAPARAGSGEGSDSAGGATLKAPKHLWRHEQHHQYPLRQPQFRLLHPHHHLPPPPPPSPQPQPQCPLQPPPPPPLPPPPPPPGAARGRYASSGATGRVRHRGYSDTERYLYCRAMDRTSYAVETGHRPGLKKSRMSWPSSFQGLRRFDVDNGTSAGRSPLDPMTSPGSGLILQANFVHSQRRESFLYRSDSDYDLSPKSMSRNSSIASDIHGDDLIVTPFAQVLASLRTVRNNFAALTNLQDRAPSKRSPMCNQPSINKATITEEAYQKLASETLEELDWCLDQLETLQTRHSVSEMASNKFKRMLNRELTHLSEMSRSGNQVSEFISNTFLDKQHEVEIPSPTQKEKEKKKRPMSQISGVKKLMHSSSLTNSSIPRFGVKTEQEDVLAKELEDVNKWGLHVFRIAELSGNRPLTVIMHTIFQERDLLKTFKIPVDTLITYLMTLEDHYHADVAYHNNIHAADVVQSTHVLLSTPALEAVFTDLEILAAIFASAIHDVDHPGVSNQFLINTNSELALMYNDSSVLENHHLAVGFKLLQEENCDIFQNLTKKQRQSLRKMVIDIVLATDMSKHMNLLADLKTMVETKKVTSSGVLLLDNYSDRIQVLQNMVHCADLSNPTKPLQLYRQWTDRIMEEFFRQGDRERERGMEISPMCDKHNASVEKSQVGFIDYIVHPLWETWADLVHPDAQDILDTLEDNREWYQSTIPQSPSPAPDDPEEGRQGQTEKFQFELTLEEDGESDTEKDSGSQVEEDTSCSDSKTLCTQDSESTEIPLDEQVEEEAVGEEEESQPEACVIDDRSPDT

Homo sapiens = organism: Homo sapiens; test: Selectivity index, ratio of IC50 for PDE4D2 (unknown origin) to IC50 for recombinant His-tagged human PDE4B expressed in sf9 cells using cAMP as substrate by PDELight HTS cAMP phosphodiesterase Kit based luminometry
[4] = Toxicity in zebrafish embryo assessed as effect in notochord formation at 3000 uM; parameters: species or system Danio rerio; details: in vivo
[5] = Toxicity in zebrafish embryo assessed as effect in upper jaw formation at 3000 uM; parameters: species or system Danio rerio; details: in vivo
[6] = Toxicity in zebrafish embryo assessed as effect in liver formation at 3000 uM; parameters: species or system Danio rerio; details: in vivo
[7] = Toxicity in zebrafish embryo assessed as effect in somite formation at 3000 uM; parameters: species or system Danio rerio; details: in vivo
[8] = Toxicity in zebrafish embryo assessed as effect in lower jaw formation at 3000 uM; parameters: species or system Danio rerio; details: in vivo
[9] = Toxicity in zebrafish embryo assessed as change in body shape at 3000 uM; parameters: species or system Danio rerio; details: in vivo
[10] = Toxicity in zebrafish embryo assessed as effect in fin formation at 3000 uM; parameters: species or system Danio rerio; details: in vivo
[11] = Toxicity in zebrafish embryo assessed as effect in swim bladder formation at 3000 uM; parameters: species or system Danio rerio; details: in vivo
[12] = Toxicity in zebrafish embryo assessed as effect in brain formation at 3000 uM; format: tissue-based, Danio rerio; details: in vivo
[13] = Toxicity in zebrafish embryo assessed as effect in heart formation at 3000 uM; format: tissue-based, Danio rerio; details: in vivo
[14] = Toxicity in zebrafish embryo assessed as effect in tail formation at 3000 uM; parameters: species or system Danio rerio; details: in vivo
[15] = Toxicity in zebrafish embryo assessed as effect in intestine formation at 3000 uM; format: tissue-based, Danio rerio; details: in vivo
Danio rerio = test: Anti-sclerotic activity in MOG/CFA-induced zebra fish EAE model assessed as reduction in lesion score at 1 mg/kg, po measured for 7 days; format: functional, organism-based
[16] = target: Dual specificity calcium/calmodulin-dependent 3',5'-cyclic nucleotide phosphodiesterase 1B (Homo sapiens) (UniProt Q01064); test: Inhibition of recombinant N-terminal GST tagged full length human PDE1B expressed in Sf9 cells using FAM-cAMP as substrate at 10xIC50 incubated for 60 mins by fluorescence plate reader analysis
Chain of Dual specificity calcium/calmodulin-dependent 3',5'-cyclic nucleotide phosphodiesterase 1B (Homo sapiens) (Q01064 whole entry, the tested form may be a part): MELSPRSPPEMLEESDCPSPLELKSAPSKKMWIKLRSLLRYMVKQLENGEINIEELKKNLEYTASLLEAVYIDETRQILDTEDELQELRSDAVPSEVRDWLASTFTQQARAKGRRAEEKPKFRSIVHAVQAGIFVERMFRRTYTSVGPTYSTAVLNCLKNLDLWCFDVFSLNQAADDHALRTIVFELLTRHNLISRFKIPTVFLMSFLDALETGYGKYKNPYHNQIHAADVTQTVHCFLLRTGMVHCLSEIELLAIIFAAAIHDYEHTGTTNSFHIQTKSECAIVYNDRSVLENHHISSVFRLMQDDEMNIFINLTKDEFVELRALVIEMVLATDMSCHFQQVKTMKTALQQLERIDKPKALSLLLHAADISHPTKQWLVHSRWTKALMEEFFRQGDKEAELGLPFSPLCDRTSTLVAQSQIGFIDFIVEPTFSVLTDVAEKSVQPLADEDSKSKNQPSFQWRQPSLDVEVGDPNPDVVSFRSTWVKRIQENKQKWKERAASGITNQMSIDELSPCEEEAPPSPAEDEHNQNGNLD

[17] = target: Dual specificity calcium/calmodulin-dependent 3',5'-cyclic nucleotide phosphodiesterase 1C (Homo sapiens) (UniProt Q14123); test: Inhibition of recombinant N-terminal GST tagged human PDE1C (2 to 634 aa) expressed in Sf9 cells at 0.1xIC50 using FAM-cAMP as substrate incubated for 60 mins by fluorescence plate reader analysis
Chain of Dual specificity calcium/calmodulin-dependent 3',5'-cyclic nucleotide phosphodiesterase 1C (Homo sapiens) (Q14123 whole entry, the tested form may be a part): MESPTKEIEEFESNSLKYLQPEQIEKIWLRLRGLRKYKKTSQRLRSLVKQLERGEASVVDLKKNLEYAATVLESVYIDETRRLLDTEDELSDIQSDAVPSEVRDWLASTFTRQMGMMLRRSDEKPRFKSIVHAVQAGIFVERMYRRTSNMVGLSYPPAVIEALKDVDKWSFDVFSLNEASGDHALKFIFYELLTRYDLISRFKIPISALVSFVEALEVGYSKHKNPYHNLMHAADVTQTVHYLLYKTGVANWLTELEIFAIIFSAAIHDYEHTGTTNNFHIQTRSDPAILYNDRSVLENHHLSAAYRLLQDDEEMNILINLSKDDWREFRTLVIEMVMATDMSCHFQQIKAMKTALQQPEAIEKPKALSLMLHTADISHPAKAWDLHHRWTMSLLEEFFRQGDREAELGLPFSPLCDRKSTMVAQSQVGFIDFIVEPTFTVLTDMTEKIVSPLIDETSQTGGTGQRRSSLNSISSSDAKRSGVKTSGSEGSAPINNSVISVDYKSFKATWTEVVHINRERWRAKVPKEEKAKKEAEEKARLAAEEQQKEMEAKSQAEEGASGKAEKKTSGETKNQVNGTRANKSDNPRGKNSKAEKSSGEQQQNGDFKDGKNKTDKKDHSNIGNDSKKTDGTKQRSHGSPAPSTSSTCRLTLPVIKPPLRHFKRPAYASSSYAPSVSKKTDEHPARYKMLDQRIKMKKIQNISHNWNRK

[18] = target: Dual specificity calcium/calmodulin-dependent 3',5'-cyclic nucleotide phosphodiesterase 1B (Homo sapiens) (UniProt Q01064); test: Inhibition of recombinant N-terminal GST tagged full length human PDE1B expressed in Sf9 cells using FAM-cAMP as substrate at 1xIC50 incubated for 60 mins by fluorescence plate reader analysis
[19] = target: Dual specificity calcium/calmodulin-dependent 3',5'-cyclic nucleotide phosphodiesterase 1C (Homo sapiens) (UniProt Q14123); test: Inhibition of recombinant N-terminal GST tagged human PDE1C (2 to 634 aa) expressed in Sf9 cells at 1xIC50 using FAM-cAMP as substrate incubated for 60 mins by fluorescence plate reader analysis
[20] = target: Dual specificity calcium/calmodulin-dependent 3',5'-cyclic nucleotide phosphodiesterase 1A (Homo sapiens) (UniProt P54750); test: Inhibition of recombinant N-terminal GST-tagged full-length human PDE1A1 expressed in Sf9 cells using FAM-cAMP as substrate at 1xIC50 incubated for 60 mins by fluorescence plate reader analysis
Chain of Dual specificity calcium/calmodulin-dependent 3',5'-cyclic nucleotide phosphodiesterase 1A (Homo sapiens) (P54750 whole entry, the tested form may be a part): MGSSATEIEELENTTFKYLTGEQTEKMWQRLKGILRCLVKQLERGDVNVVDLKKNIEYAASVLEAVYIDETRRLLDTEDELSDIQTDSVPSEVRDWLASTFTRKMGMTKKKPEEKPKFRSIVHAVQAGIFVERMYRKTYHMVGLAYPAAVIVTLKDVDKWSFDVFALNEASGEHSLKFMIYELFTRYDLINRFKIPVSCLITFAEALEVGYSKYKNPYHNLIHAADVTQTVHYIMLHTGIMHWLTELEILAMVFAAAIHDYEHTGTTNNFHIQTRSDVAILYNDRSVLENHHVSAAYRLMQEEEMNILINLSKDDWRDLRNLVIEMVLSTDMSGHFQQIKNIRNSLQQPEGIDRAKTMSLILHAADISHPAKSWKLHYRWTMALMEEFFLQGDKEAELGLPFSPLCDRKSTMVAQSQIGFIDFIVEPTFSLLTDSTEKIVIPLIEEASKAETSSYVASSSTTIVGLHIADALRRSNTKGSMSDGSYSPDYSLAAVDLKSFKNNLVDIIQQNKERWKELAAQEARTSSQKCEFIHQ

[21] = target: Dual specificity calcium/calmodulin-dependent 3',5'-cyclic nucleotide phosphodiesterase 1C (Homo sapiens) (UniProt Q14123); test: Inhibition of recombinant N-terminal GST tagged human PDE1C (2 to 634 aa) expressed in Sf9 cells at 10xIC50 using FAM-cAMP as substrate incubated for 60 mins by fluorescence plate reader analysis
[22] = target: Dual specificity calcium/calmodulin-dependent 3',5'-cyclic nucleotide phosphodiesterase 1A (Homo sapiens) (UniProt P54750); test: Inhibition of recombinant N-terminal GST-tagged full-length human PDE1A1 expressed in Sf9 cells using FAM-cAMP as substrate at 10xIC50 incubated for 60 mins by fluorescence plate reader analysis
[23] = target: Dual specificity calcium/calmodulin-dependent 3',5'-cyclic nucleotide phosphodiesterase 1B (Homo sapiens) (UniProt Q01064); test: Inhibition of recombinant N-terminal GST tagged full length human PDE1B expressed in Sf9 cells using FAM-cAMP as substrate at 0.1xIC50 incubated for 60 mins by fluorescence plate reader analysis
[24] = target: Dual specificity calcium/calmodulin-dependent 3',5'-cyclic nucleotide phosphodiesterase 1A (Homo sapiens) (UniProt P54750); test: Inhibition of recombinant N-terminal GST-tagged full-length human PDE1A1 expressed in Sf9 cells using FAM-cAMP as substrate at 0.1xIC50 incubated for 60 mins by fluorescence plate reader analysis
Rattus norvegicus = test: Antiarthritic activity in complete Freund's adjuvant-induced Wistar rat arthritis model assessed as reduction in paw volume at 2 mg/kg, ip administered from 11th day to 20th day by vernier caliper analysis; format: functional, organism-based
[25] = target: High affinity 3',5'-cyclic-AMP phosphodiesterase 7A (Homo sapiens) (UniProt Q13946); test: Inhibition of recombinant N-terminal GST tagged human PDE7A1 (122-end aa) expressed in Sf9 cells using FAM-cAMP as substrate at 0.1xIC50 incubated for 60 mins by fluorescence plate reader analysis
Chain of High affinity 3',5'-cyclic-AMP phosphodiesterase 7A (Homo sapiens) (Q13946 whole entry): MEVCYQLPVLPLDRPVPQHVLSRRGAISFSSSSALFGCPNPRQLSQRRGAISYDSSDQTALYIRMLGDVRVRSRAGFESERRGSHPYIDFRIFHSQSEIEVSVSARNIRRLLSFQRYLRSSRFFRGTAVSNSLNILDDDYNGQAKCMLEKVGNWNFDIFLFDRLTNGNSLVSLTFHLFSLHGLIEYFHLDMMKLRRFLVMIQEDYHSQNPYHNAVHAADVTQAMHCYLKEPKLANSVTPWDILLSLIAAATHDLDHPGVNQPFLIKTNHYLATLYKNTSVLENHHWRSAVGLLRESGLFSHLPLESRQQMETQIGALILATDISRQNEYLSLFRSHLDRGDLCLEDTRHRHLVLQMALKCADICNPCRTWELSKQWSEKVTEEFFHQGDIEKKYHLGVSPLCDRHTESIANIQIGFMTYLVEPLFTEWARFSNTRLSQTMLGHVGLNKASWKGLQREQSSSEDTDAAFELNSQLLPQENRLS

[26] = target: High affinity 3',5'-cyclic-AMP phosphodiesterase 7A (Homo sapiens) (UniProt Q13946); test: Inhibition of recombinant N-terminal GST tagged human PDE7A1 (122-end aa) expressed in Sf9 cells using FAM-cAMP as substrate at 1xIC50 incubated for 60 mins by fluorescence plate reader analysis
[27] = target: High affinity 3',5'-cyclic-AMP phosphodiesterase 7A (Homo sapiens) (UniProt Q13946); test: Inhibition of recombinant N-terminal GST tagged human PDE7A1 (122-end aa) expressed in Sf9 cells using FAM-cAMP as substrate at 10xIC50 incubated for 60 mins by fluorescence plate reader analysis

## COC(=O)/C=C/c1[nH]c2ccccc2c1-c1nc2ccccc2nc1Cl
[1]
  inhibition: > 75%
[2]
  IC50: 3.88 µM

## CCC(C)n1cc(-c2nc3ccccc3nc2Cl)c2cc(OC)ccc21 (stereo unspecified)
[3]
  IC50: 4.93 µM
[1]
  inhibition: > 75%
Homo sapiens
  Ratio IC50: 4.75
[2]
  IC50: 1.04 µM

## CC(C)n1cc(-c2nc3ccccc3nc2Cl)c2cc(Br)ccc21
[1]
  inhibition: > 75%
[2]
  IC50: 9.74 µM

## CCC1(c2ccccc2)C(=O)NC(=O)NC1=O [PHENOBARBITAL]
[4]
  Activity: Toxic
[5]
  Activity: Toxic
[6]
  Activity: Toxic
[7]
  Activity: Toxic
[8]
  Activity: Toxic
[9]
  Activity: Toxic
[10]
  Activity: Toxic
[11]
  Activity: Toxic
[12]
  Activity: Toxic
[13]
  Activity: Toxic
[14]
  Activity: Toxic
[15]
  Activity: Toxic

## CCCCCCCCc1ccc(CCC(N)(CO)CO)cc1
Danio rerio
  inhibition: Active

## COc1ccc(Cc2nc(O)c3c(C)nc([C@@H](CCCc4ccccc4)[C@@H](C)O)n3n2)cc1OC
[16]
  inhibition: 86%
[17]
  inhibition: 18%
[18]
  inhibition: 55%
[19]
  inhibition: 52%
[20]
  inhibition: 52%
[21]
  inhibition: 86%
[22]
  inhibition: 87%
[23]
  inhibition: 16%
[24]
  inhibition: 7%

## COC(=O)/C=C/c1c(-c2nc3ccccc3nc2Cl)c2cc(OC)ccc2n1C(C)C
[1]
  inhibition: > 75%
[2]
  IC50: 5.97 µM

## CN(Cc1cnc2nc(N)nc(N)c2n1)c1ccc(C(=O)N[C@@H](CCC(=O)O)C(=O)O)cc1
Rattus norvegicus
  inhibition: Active

## Cc1ccc([N+](=O)[O-])cc1S(=O)(=O)N(C)C
[25]
  inhibition: 10%
[26]
  inhibition: 49%
[27]
  inhibition: 88%
